Like-named read-outs stand apart in the source and are kept apart here.
Legend:
[1] = tested on: NIH 3T3; test: Cell viability assay (MTT), NIH 3T3; format: cell-based, mouse; conditions: 10% FBS, 1% DMSO
Procedure: (§1) Table 12: 6-day cell viability assay (MTT) in the presence of 10% Fetal Bovine Serum and 1% DMSO, in HMEC1, HCT116, MDA-MB-231, MCF7 and NIH3T3 cell lines. 3 10^3 to 15 10^3 cells were seeded in 48-well plates in growth medium containing 10% FBS, with or without various concentrations of test compounds. Cell cultures were fed every 3 days with the appropriate media. Cell viability was determined on day 6. Data were analyzed and IC50s were calculated from dose-response curves using GraphPad Prism. Results summarized in the tables are mean±SEM of 1 to 8 independent experiments.
(§2) Table 15: 16-hour cell viability assay (MTT) in the presence of 10% Fetal Bovine Serum and 1% DMSO, in HCT116, MDA-MB-231, NIH3T3, HepG2 and primary hepatocytes. 5 10^4 to 10 10^4 cells were seeded in 48-well plates in growth medium containing 10% FBS, with or without various concentrations of test compounds. Data were analyzed and IC50s were calculated from dose-reponse curves using GraphPad Prism. Results summarized in the tables are mean±SEM of 1 to 2 independent experiments.
(§3) In order to determine a compound's effect on cell viability, microculture tetrazolium assays (MTT) were performed as described by Carmichael et al. (1996) with modifications. Four human tumoral cell lines, namely HCT116 colon adenocarcinoma, H460 lung carcinoma, MCF-7 and MDA-MB-231 breast carcinoma cell lines, DLD1 colorectal adenocarcinoma, HeLa adenocarcinoma, HepG2 hepatocellular carcinoma. 3 immortalized but non tumorigenic cell lines, namely NIH3T3 mouse fibroblasts (American Type Culture Collection) and primary hepatocytes (Biopredic international), cultured according to their recommendations together with Human Microvasculature Endothelial Cell line HMEC1 (National Center for Infectious Diseases). Briefly, cells were seeded in 48-well plates 24 hours before drug addition. Cells were treated with 0 to 200 μM (11 concentrations) of compound solubilized in DMSO, adjusting the final concentration of DMSO to 1% in the well. 16 hours, and three or six days after treatment, 0.5 mg/ml MTT (Sigma) was added to the medium and cells were incubated for 1-5 hours at 37° C. before solubilization of formazan crystals in 100% DMSO. Absorbance was measured using a spectrophotometer at a wavelength of 550 nm. Data was analyzed using the GraphPad Prism software (GraphPad Software, Inc.), and IC50 (dose leading to 50% cell death) was calculated from the dose-response curves.

[2] = tested on: MDA-MB-231; test: Cell viability assay (MTT), MDA-MB-231; format: cell-based, human; conditions: 1% DMSO
Procedure: as §1
(§4) Table 13: 6-day cell viability assay (MTT) in the presence of 0.5% Fetal Bovine Serum and 1% DMSO, in HCT116 and MDA-MB-231 cell lines. 7.5 10^4 to 15 10^4 cells were seeded in 48-well plates in growth medium containing 10% FBS, with or without various concentrations of test compounds. Cell cultures were fed every 3 days with the appropriate media. Cell viability was determined on day 6. Data were analyzed and IC50s were calculated from dose-response curves using GraphPad Prism. Results summarized in the tables are mean±SEM of 1 to 2 independent experiments.
(§5) Table 14: 3-day cell viability assay (MTT) in the presence of 10% Fetal Bovine Serum and 1% DMSO, in DLD1, HCT116, MDA-MB-231, MCF7 and HeLa cells. 7.5 10^3 to 1.5 10^4 cells were seeded in 48-well plates in growth medium containing 10% FBS, with or without various concentrations of test compounds. Data were analyzed and IC50s were calculated from dose-response curves using GraphPad Prism. Results summarized in the tables are mean±SEM of 1 to 7 independent experiments.
as §2, §3

[3] = tested on: HMEC1; test: Cell viability assay (MTT), HMEC1; format: cell-based, Human; conditions: 10% FBS; for IC50: MTT, 6-day treatment, 1% DMSO
Procedure: as §1, §3

[4] = tested on: HCT116; test: Cell viability assay (MTT), HCT116; format: cell-based, human; conditions: 1% DMSO
Procedure: as §1, §4, §5, §2, §3

[5] = Mus musculus, NIH3T3, 144 h, 6-day treatment
[6] = 10% FBS, 6-day treatment, read-out: IC50 μM, MDA-MB-231
[7] = Homo sapiens, MDA-MB-231, 144 h, 10% FBS, 6-day treatment, read-out: IC50 μM, MDA-MB-231
[8] = Homo sapiens, HCT-116, 144 h, 10% FBS, 6-day treatment

IC50 [4, 8] [µM]	melting point	Compound	IC50 [1, 5] [µM]	IC50 ([3]; Homo sapiens, HMEC-1, 144 h) [µM]	IC50 [3] [µM]	further results
		CC(C)(C)C(=O)N1CCN(Cc2cc(=O)c(OCCCCCSc3ccnc4cc(C(F)(F)F)ccc34)co2)CC1 [EHT 0785, 5-(5-(7-(Trifluoromethyl)quinolin-4-ylthio)pentyloxy)-2-((4-(pivaloyl)piperazin-1-yl)methyl)-4H-pyran-4-one]	11.6	< 10	9.6	IC50 [2, 6]: 8.2 µM; IC50 [2, 7]: < 9 µM; difference of activity in HMEC1 cells as compared to HCT116 cells ([3]; MTT 6 days, compounds most active in HCT116): 5 fold
		CC(C)(C)NC(=O)N1CCN(Cc2cc(=O)c(OCCCCCSc3ccnc4cc(C(F)(F)F)ccc34)co2)CC1 [EHT 3664, 4-((5-(5-(7-(Trifluoromethyl)quinolin-4-ylthio)pentyloxy)-4-oxo-4H-pyran-2-yl)methyl)-N-tert-butylpiperazine-1-carboxamide]	9.8	< 10	10	IC50 [2, 6]: 6.3 µM; IC50 [2, 7]: < 9 µM
12.1	107 °C	O=c1cc(CF)occ1OCCCCCSc1ccnc2cc(C(F)(F)F)ccc12 [EHT 8817, 5-(5-(7-(Trifluoromethyl)quinolin-4-ylthio)pentyloxy)-2-(fluoromethyl)-4H-pyran-4-one]		41		
~200	78.2 °C	CN1CCN(Cc2cc(=O)c(OCCCCCOc3ncnc4ccccc34)co2)CC1 [EHT 4063, 5-(5-(Quinazolin-4-yloxy)pentyloxy)-2-((4-methylpiperazin-1-yl)methyl)-4H-pyran-4-one]		~200		
< 4	108.9 °C	O=c1cc(CN2CCCCC2)occ1OCCCCCSc1ccnc2cc(C(F)(F)F)ccc12 [EHT 9317, 5-(5-(7-(Trifluoromethyl)quinolin-4-ylthio)pentyloxy)-2-((piperidin-1-yl)methyl)-4H-pyran-4-one]		11.7		IC50 ([4]; 10% FBS, 6-day treatment): 2.3 µM
	66.1 °C	O=c1cc(COC2CCCCO2)occ1OCCCCCCCCSc1ccnc2cc(C(F)(F)F)ccc12 (stereo not shown) [EHT 1006, 5-(8-(7-(Trifluoromethyl)quinolin-4-ylthio)octyloxy)-2-((tetrahydro-2H-pyran-2-yloxy)methyl)-4H-pyran-4-one]		< 10	9.5	
< 4		O=c1cc(COC2CCCCO2)occ1OCCCCCOc1ccnc2cc(C(F)(F)F)ccc12 (stereo not shown) [EHT 3788, 2-(Tetrahydro-pyran-2-yloxymethyl)-5-[5-(7-trifluoromethyl-quinolin-4-yloxy)-pentyloxy]-pyran-4-one]	8.8	< 10	7.1	IC50 ([4]; 10% FBS, 6-day treatment): 2.1 µM
	126.8 °C	O=C(CCCCOc1coc(CN2CCOCC2)cc1=O)Nc1ccnc2cc(C(F)(F)F)ccc12 [EHT 6037, 5-(6-(Morpholinomethyl)-4-oxo-4H-pyran-3-yloxy)-N-(7-(trifluoromethyl)quinolin-4-yl)pentanamide]				
101	125.6 °C	O=c1cc(CN2CCOCC2)occ1OCCOc1ccnc2cc(C(F)(F)F)ccc12 [EHT 6892, 5-(2-(7-(trifluoromethyl)quinolin-4-yloxy)ethoxy)-2-(morpholinomethyl)-4H-pyran-4-one]				
	67.8 °C	O=c1cc(COC2CCCCO2)occ1OCCCCCCSc1ccnc2cc(C(F)(F)F)ccc12 (stereo not shown) [EHT 6271, 2-(Tetrahydro-pyran-2-yloxymethyl)-5-[6-(7-trifluoromethyl-quinolin-4-ylsulfanyl)-hexyloxy]-4H-pyran-4-one]		< 10	9	
0.0055		CC(=O)O[C@H]1C(=O)[C@@]2(C)[C@H]([C@H](OC(=O)c3ccccc3)[C@]3(O)C[C@H](OC(=O)[C@H](O)[C@@H](NC(=O)c4ccccc4)c4ccccc4)C(C)=C1C3(C)C)[C@]1(OC(C)=O)CO[C@@H]1C[C@@H]2O [Taxol, Paclitaxel, reference compound]	~0.05	0.0029		IC50 ([2]; Homo sapiens, MDA-MB-231, 72 h, 10% FBS, 3-day treatment, read-out: IC50, MDA-MB-231 (row labelled Taxol (nM))): 4.25e-06 µM; IC50 [2, 7]: 0.0036 µM
	130.2 °C	CC(C)(C)OC(=O)N1CCN(Cc2cc(=O)c(OCCCCCOc3ccnc4cc(Cl)ccc34)co2)CC1 [EHT 2580, tert-Butyl 4-((5-(5-(7-chloroquinolin-4-yloxy)pentyloxy)-4-oxo-4H-pyran-2-yl)methyl)piperazine-1-carboxylate]				
	133.2 °C (dec.)	O=c1cc(CO)occ1OCCCCCSc1ccnc2cc(C(F)(F)F)ccc12 [EHT 5909, 2-Hydroxymethyl-5-[5-(7-trifluoromethyl-quinolin-4-ylsulfanyl)-pentyloxy]-4H-pyran-4-one]				
< 4		Cc1cc(OCCCCCOc2coc(COC3CCCCO3)cc2=O)c2cc(F)ccc2n1 (stereo not shown) [EHT 1593, 5-[5-(6-Fluoro-2-methyl-quinolin-4-yloxy)-pentyloxy]-2-(tetrahydro-pyran-2-yloxymethyl)-4H-pyran-4-one]	21.5	13.2		IC50 ([4]; 10% FBS, 6-day treatment): 2.4 µM
		CC(C)(C)OC(=O)N1CCN(Cc2cc(=O)c(OCCCCCSc3ccnc4cc(C(F)(F)F)ccc34)co2)CC1 [EHT 9358, tert-Butyl 4-((5-(5-(7-(trifluoromethyl)quinolin-4-ylthio)pentyloxy)-4-oxo-4H-pyran-2-yl)methyl)piperazine-1-carboxylate]	7.7	18.4		IC50 ([4]; Homo sapiens, HCT-116, 144 h, 0.5% FBS, 6-day treatment): 1 µM
		COc1cc2c(cc1O)CC[C@@H]1[C@@H]2CC[C@]2(C)[C@@H](O)CC[C@@H]12 [2ME, 2-Methoxyestradiol, reference compound]			2.1	IC50 ([4]; 0.5% FBS, 6-day treatment): 3.1 µM; IC50 ([4]; 10% FBS, 6-day treatment): 0.8 µM; IC50 ([4]; 10% FBS, 16-hours treatment): 128 µM; IC50 ([1]; 6-day treatment): 2.4 µM; IC50 ([1]; 16-hours treatment): > 150 µM; IC50 ([2]; 0.5% FBS, 6-day treatment, read-out: IC50 (μM), MDA-MB-231): 15.4 µM; IC50 [2, 6]: 0.3 µM; IC50 ([2]; 10% FBS, 16-hours treatment, read-out: IC50 μM, MDA-MB-231): > 100 µM
	38.2 °C	O=c1cc(CCl)occ1OCCCCCSc1ccnc2cc(C(F)(F)F)ccc12 [EHT 1494, 2-Chloromethyl-5-[5-(7-trifluoromethyl-quinolin-4-ylsulfanyl)-pentyloxy]-4H-pyran-4-one]				
	66.3 °C	CS(=O)(=O)N1CCN(Cc2cc(=O)c(OCCCCCSc3ccnc4cc(C(F)(F)F)ccc34)co2)CC1 [EHT 8366, 5-(5-(7-(Trifluoromethyl)quinolin-4-ylthio)pentyloxy)-2-((4-Methylsulfonylpiperazin-1-yl)methyl)-4H-pyran-4-one]				

Compound	IC50 [4, 8] [µM]	melting point	IC50 [1, 5] [µM]	IC50 ([3]; Homo sapiens, HMEC-1, 144 h) [µM]	IC50 [3] [µM]	further results
O=c1cc(COC2CCCCO2)occ1OCCCCSc1ccnc2cc(C(F)(F)F)ccc12 (stereo not shown) [EHT 4745, 2-(Tetrahydro-pyran-2-yloxymethyl)-5-[4-(7-trifluoromethyl-quinolin-4-ylsulfanyl)-butoxy]-4H-pyran-4-one]	4.1	97.3 °C (dec.)		< 10	9.8	

Source: patent US7514432B2, “Compounds and methods of treating cell proliferative diseases, retinopathies and arthritis” (Exonhit Therapeutics SA, priority 2003, dated 2009)
